Earlier results as cited in patent publication US20140234375A1, “Compositions and Methods for Eliciting an Immune Response to Escape Mutants of Targeted Therapies” (priority 2005, published 2014).

Legend:
[1] = target: HCV NS3 serine protease (Hepatitis C virus genotype 1b, UniProt Q9WMX2); details: in vitro, major resistance mutation
[2] = tested on: HIV-1 variants; details: by 8 weeks of therapy
[3] = tested on: HIV gp41; details: valine to alanine at amino acid 38 (V38A)

COc1ccc2c(O[C@@H]3C[C@H]4C(=O)N[C@]5(C(=O)O)C[C@H]5/C=C\CCCCC[C@H](NC(=O)OC5CCCC5)C(=O)N4C3)cc(-c3csc(NC(C)C)n3)nc2c1 [BILN 2061]
frequency of Ala substitution (D168A) at amino acid 168 [1]: 24%
frequency of Val substitution (D168V) at amino acid 168 [1]: 64%

Cc1ccnc2c1NC(=O)c1cccnc1N2C1CC1 [Nevirapine, nevirapine]
decrease in susceptibility of patient isolates [2]: greater than 100 fold

CCC[C@H](NC(=O)[C@@H]1[C@H]2CCC[C@H]2CN1C(=O)[C@@H](NC(=O)[C@@H](NC(=O)c1cnccn1)C1CCCCC1)C(C)(C)C)C(=O)C(=O)NC1CC1 [VX-950]
frequency of Ser substitution (A156S) at amino acid 156 ([1]; share of samples): 79%

enfuvirtide
resistance to enfuvirtide [3]: 45 fold
